Data taken from publication PMC6943423, “Structure-Activity Study of an All-D Antimicrobial Octapeptide D2D” (Molecules, 2019).
Square brackets hold non-standard residues; d marks the D form. Peptide text beside a SMILES is read from it. d1Nal = N[C@H](Cc1cccc2ccccc12)C(=O)O; dNle = CCCC[C@@H](N)C(=O)O

Assays:
A. baumannii 19606 = assay: Time-kill kinetics, A. baumannii; format: cell-based, Acinetobacter baumannii; details: 5 × MIC, exponentially growing cells 1 × 10^8, A. baumannii 19606
Procedure: (§1) The time kill experiments were performed by treating exponentially growing cultures with D2D and compound 5. Overnight cultures grown in MHB-II media, were diluted 1:10.000 to ensure exponentially growing cultures (8–10 generations), before cultures reached 1 × 10^8 CFU approximately OD600 = 0.1. When cultures reached 1 × 10^8 they were split into blood glass tubes containing 3 mL each and then treated with the respective drugs at the concentrations as shown in Figure 3. Sampling was performed at 0, 1, 3, 5 and 24 h, by removing 250 µL culture. Samples were spun down at 4000 G for 5 min and supernatant removed, cells were washed in 1 mL 0.9% NaCl, spun down again, before being suspended in 250 µL 0.9% NaCl. Finally, 10 fold dilution series were prepared in 0.9% NaCl. From these 10 µL were spotted (in triplicate) onto LB agar. CFU were counted after 24 h incubation at 37 °C. Experiments were performed in triplicate from individual colonies. Data analysis was performed using GraphPad prism 5 and plotted as the mean of triplicated with standard deviation.

[1] = Peptide self-assembly nanostructure in solution by SAXS; format: physicochemical; details: for nanostructure in solution (self-assembly, SAXS model): lab SAXS, 50 mM Tris buffer pH 7.4, 2.5–10 mg/mL, ambient temperature; as to outer radius of hollow nano-tubes: values in Å; as to shell thickness of hollow nano-tubes: values in Å
Procedure: SAXS experiments of D2D and the alanine-scan (compounds 1–8) were performed using a Bruker NANOSTAR equipped with a microfocus X-ray source (IμS Cu, InCoatec, Germany) and a VÅNTEC-2000 detector. Raw scattering data was calibrated to absolute intensity scale using water as a primary standard and radially averaged in order to obtain the 1D scattered intensity profile as a function of the scattering vector q (q = 4 π sin (θ/2)/λ), where θ is the scattering angle and λ is the X-ray wavelength of 1.54 Å. The samples were dissolved in 50 mM Tris buffer, pH 7.4 (10 mg/mL, 5 mg/mL and 2.5 mg/mL) and injected manually into a temperature-controlled quartz cell located in a vacuum chamber and measured for 180 min.
The scattering of the peptide D2D was analysed using a random polymer-like chain model:(1) Ichain(q)=ϕ·Vp·Δρ^2·Pchain(q) where ϕ is the volume fraction of the peptide, Vp is the volume of the polymer, Δρ is the excess scattering length density and Pchain(q) is the form factor of the free peptide chains given by the Debye expression for Gaussian chains:(2) gPchain(q)=2·exp[−(qRg)^2]−1+(qRg)^2/(qRg)^4 where Rg is the radius gyration of the peptide chains.
The scattering for compounds 2 and 7 was analysed using a rectangular sheet like model:(3) Isheet(q)=ϕ·Vp·Δρ^2·Np·Psheet(q)
Under the assumption that the length of the peptide sheets are much greater than the lateral dimension, i.e., c >> a, b, the form factor Psheet(q) is given by (4) Psheet(q)=Fc(q)1/2π∫02πAsheet(q, α)^2dα where the amplitude is given by (5) Asheet(q,α)=sin(qb cos(α)/2)/qb cos(α)/2· sin(qa sin(α)/2) /qa sin(α)/2) and (6) Fc(q)=(2 Si(qc)/(qc)−4 sin^2(qc/2)/(qc)^2 where Si(x)=∫0xt^−1sint dt .
The expression for the absolute scattering intensity, from this structure can be written as:(7) Inanotube(q)=ϕ·P·Vtot·Δρ^2·P(q)L·A(q)cs2·DW(q) where ϕ is the volume fraction of the peptide, P is the aggregation number given by P π(Ro2−Ri2)L/Vp where Vp is the volume of a peptide chain, Ro is the outer radius and Ri is the inner radius of the tubes, and L is the length. A(q)cs2 is given by:(8) A(q)cs2=Ro2A(q,Rc)−Rin2A(q,Ri)/(Ro2−Ri2) where A(q,x)=2J1(q·x)/(q·x) and J1(x) is the first order Bessel function.
The longitudinal form factor P(q)L is given by:(9) P(q)L=2 Si(QL)/QL −4 sin(sin^2(QL/2)/(QL)^2 where L is the length of the nanotubes and Si(x) is the Sine-function.
In addition, we introduced a slight distribution in the inner radius for possible shape fluctuations, and a Debye Waller factor, DW(q) = exp(−q^2 σ^2), describing possible surface roughness of the inner and outer wall.

[2] = Lipid-peptide interaction by synchrotron SAXS; details: SAXS fit parameter, fit error < 5%
Text: For preparation of unilamellar lipid vesicles, synthetic DMPC (1,2-dimyristoyl-sn-glycero-3-phosphocholine), DMPG (1,2-dimyristoyl-sn-glycero-3-phospho-(10-rac-glycerol)), and DMPE-PEG (1,2-dimyristoyl-sn-glycero-3-phosphoethanolamine-N-[methoxy(polyethylene glycol)-2000]) (from Avanti Polar Lipids) were used in the molar ratio 9:7.5:2.5. The lipids were first dissolved in a 1:3 methanol:chloroform solution, and then the organic solvents were removed completely under vacuum using a Heidolph rotary evaporator with a Vacuubrand vacuum pump. The resulting lipid film was hydrated with 50 mM Tris buffer, pH 7.4, for at least one hour at 35 °C. After sonication for 10 min, the lipid dispersions were extruded through a 100 nm pore diameter polycarbonate filter (21 times) using an Avanti mini-extruder fitted with two 1 mL airtight syringes. Immediately before the SAXS experiment, a peptide solution with the adequate concentration for the target lipid:peptide ratio was mixed 1:1 with the lipid solution (1:1) using a micropipette.
SAXS experiments of the peptide-lipid mixes were performed at the automated BM29 bioSAXS beamline at the European Synchrotron Radiation Facility (ESRF) in Grenoble, France. The data was obtained using an energy of 12.5 keV and a detector distance of 2.87 m, covering a q range of about 0.0047 Å^−1 to 0.5 Å^−1. The data set was calibrated to an absolute intensity scale using water as a primary standard. 40 µL samples were run through a capillary using the flow mode of the automated sample changer. SAXS data was collected in ten successive frames of 0.5 s each to monitor radiation damage and the data reduction was done using the standard tool at BM29 [37].
The SAXS results of the lipid-peptide mixes were analysed using the theoretical model described in detail in [29]. In short, the model provides a detailed description of the membrane by dividing into probability functions for each component (lipid sub-units/peptide) across the bilayer.

E. coli 25922 = assay: Time-kill kinetics, E. coli; format: cell-based, Escherichia coli; details: 5 × MIC, exponentially growing cells 1 × 10^8, E. coli 25922
Procedure: as §1

human red blood cells = assay: Hemolytic activity; format: cell-based; details: red cells of human, 1 h, 150
Procedure: The percentage of hemolysis at 150 μM was determined for all compounds as previously described. Briefly, two-fold serial dilutions (2.35 to 150 μM) of compounds in PBS were mixed with a 0.5% v/v suspension of fresh human red blood cells (RBC) in the same buffer. After 1 h incubation at 37 °C, plates were centrifuged and aliquots of the supernatants were transferred to clear ELISA plates. Absorbance at 414 nm was determined and normalised with respect to a negative (PBS, 0%) and positive (melittin, 100%) control.

S. aureus 29213 = assay: Time-kill kinetics, S. aureus; format: cell-based, Staphylococcus aureus; details: for reduction in viable cells: 5 × MIC, exponentially growing cells 1 × 10^8, S. aureus 29213
Procedure: as §1

P. aeruginosa 27853 = assay: Time-kill kinetics, P. aeruginosa; format: cell-based, Pseudomonas aeruginosa; details: 5 × MIC, exponentially growing cells 1 × 10^8, P. aeruginosa 27853
Procedure: as §1

[3] = cited from earlier work
Text: (§2) In the present study, we investigated all-D-peptides. […] For example, Mana ...

S. aureus = details: cited from earlier work
Text: as §2

[4] = SAXS nanotube model fit, 50 mM Tris pH 7.4, 2.5–10 mg/mL
[5] = fraction peptide 1:10 (peptide 5: joint SAXS/SANS fit)

Compound | reduction in number of viable cells (A. baumannii 19606) | nanostructure in solution (self-assembly, SAXS model) [1] | ffree peptide ([2]; fraction peptide 1:5) | ffree peptide [2, 5] | ffree peptide ([2]; fraction peptide 1:20) | reduction in number of viable cells (E. coli 25922) | %H (% Hemolysis at 150 µM) (human red blood cells) | reduction in viable cells (S. aureus 29213) | also measured
CCCC[C@@H](NC(=O)[C@@H](CCCCN)NC(=O)[C@@H](Cc1cccc2ccccc12)NC(=O)[C@@H](C)NC(=O)[C@@H](Cc1ccccc1)NC(=O)[C@@H](Cc1cccc2ccccc12)NC(=O)[C@@H](CCCCN)NC(=O)[C@H](N)CCCCN)C(N)=O [Compound 5, kk(1-nal)fa(1-nal)k(nle)-NH2] (H-[dK][dK][d1Nal][dF][dA][d1Nal][dK][dNle]-NH2) | 4–5 logs | hollow nano-tubes | 0.4 | 0.5 | 0.5 | 4–5 logs | 47% | 5 log | outer radius of hollow nano-tubes [1, 4]: 33 Å; shell thickness of hollow nano-tubes [1, 4]: 4 Å; reduction in CFU/mL (S. aureus 29213; S. aureus, concentration not stated (conclusions)): > 3 log
CCCC[C@@H](NC(=O)[C@@H](CCCCN)NC(=O)[C@@H](C)NC(=O)[C@@H](CCCCN)NC(=O)[C@@H](Cc1ccccc1)NC(=O)[C@@H](Cc1cccc2ccccc12)NC(=O)[C@@H](CCCCN)NC(=O)[C@H](N)CCCCN)C(N)=O [Compound 6, kk(1-nal)fkak(nle)-NH2] (HELM PEPTIDE1{[dK].[dK].[O=C([C@@H](Cc1cccc2ccccc12)N[*:1])[*:2]].[dF].[dK].[dA].[dK].[CCCC[C@@H](N[*:1])C(=O)[*:2]].[am]}$$$$V2.0; N-terminus assumed) |  | random polymer-like chains |  |  |  |  | 10% |  | 
CCCC[C@@H](NC(=O)[C@@H](C)NC(=O)[C@@H](Cc1cccc2ccccc12)NC(=O)[C@@H](CCCCN)NC(=O)[C@@H](Cc1ccccc1)NC(=O)[C@@H](Cc1cccc2ccccc12)NC(=O)[C@@H](CCCCN)NC(=O)[C@H](N)CCCCN)C(N)=O [Compound 7, kk(1-nal)fk(1-nal)a(nle)-NH2] (H-[dK][dK][d1Nal][dF][dK][d1Nal][dA][dNle]-NH2) |  | larger filament like structures |  |  |  |  | 67% |  | 
C[C@@H](NC(=O)[C@@H](CCCCN)NC(=O)[C@@H](Cc1cccc2ccccc12)NC(=O)[C@@H](CCCCN)NC(=O)[C@@H](Cc1ccccc1)NC(=O)[C@@H](Cc1cccc2ccccc12)NC(=O)[C@@H](CCCCN)NC(=O)[C@H](N)CCCCN)C(N)=O [Compound 8, kk(1-nal)fk(1-nal)ka-NH2] (HELM PEPTIDE1{[dK].[dK].[O=C([C@@H](Cc1cccc2ccccc12)N[*:1])[*:2]].[dF].[dK].[O=C([C@@H](Cc1cccc2ccccc12)N[*:1])[*:2]].[dK].[dA].[am]}$$$$V2.0; N-terminus assumed) |  | random polymer-like chains |  |  |  |  | 5% |  | 
CCCC[C@@H](NC(=O)[C@@H](CCCCN)NC(=O)[C@@H](Cc1cccc2ccccc12)NC(=O)[C@@H](CCCCN)NC(=O)[C@@H](Cc1ccccc1)NC(=O)[C@@H](Cc1cccc2ccccc12)NC(=O)[C@@H](CCCCN)NC(=O)[C@H](N)CCCCN)C(N)=O [Compound D2D, kk(1-nal)fk(1-nal)k(nle)-NH2] (H-[dK][dK][d1Nal][dF][dK][d1Nal][dK][dNle]-NH2) | 4–5 logs | random unstructured polymer-like chains | 0.7 | 0.51 | 0.5 | 4–5 logs | 23% | 5 log | killing of viable cells (P. aeruginosa 27853): 1 log; activity relative to its L-enantiomer (more active) [3]: approximately four-fold
KLKLLLLLKLK-NH2 [sapesin B analog (L-form), literature peptide of Manabe et al] |  |  |  |  |  |  |  |  | antimicrobial activity against S. aureus (S. aureus): 16 µg/mL
